What was measured:
[1] = tested on: NC/Nga mice (models for atopic dermatitis); experiment: Test Example 4: anti-atopic dermatitis test, NC/Nga mice, picryl chloride hapten challenge; assay type: in vivo
Protocol: Next, test was conducted on the anti-atopic dermatitis effect of the yeast cell wall fraction. As a test specimen, NC/Nga mice (5.5 weeks old) were preliminarily raised for 2 weeks with solid foodstuff (CE-2, manufactured by Clea Japan, Inc.) and, after adaptation to the experimental environment, were used upon being separated into groups of 7 mice each. […] Hapten sensitization was conducted 1 week after the commencement of test foodstuff administration, and the initial (first) hapten challenge was conducted a week thereafter, and a hapten challenge was conducted for each elapsed week thereafter, and the final (eighth) hapten challenge was conducted […] after the commencement of test foodstuff administration. […] In the aforementioned anti-atopic dermatitis test, the clinical score and total plasma IgE level were measured with time. […] The clinical score was comprehensively evaluated in […] evaluation phases of score (0)none, (1)mild, (2)moderate, (3)severe, regarding the 5 symptoms of acomia of scalp; bleeding and erosion of scalp; bleeding and erosion of auricle portion; corpulence, edema, and purpura of auricle portion; and deformation and disappearance of auricle porition. […]

[2] = tested on: NC/Nga mice (model for delayed-type hypersensitivity); experiment: Test Example 5: inhibition effect of delayed-type hypersensitivity, NC/Nga mice; assay type: in vivo
Protocol: The same test mice and test foodstuff as in Test Example 4 were used to conduct a test on the inhibition effect of delayed-type hypersensitivity. The NC/Nga mice, as described above, are known as a model for atopic dermatitis, but can also be used as a model for delayed-type hypersensitivity. The administration of test foodstuff to the test mice was continued until the end of the test. Hapten sensitization was conducted 1 week after the commencement of the foodstuff administration, hapten challenge was conducted 1 week thereafter upon measuring the thickening of the auricle portion prior to the challenge, and measurement of the thickening of the auricle portion 24 hours later was conducted once again. Hapten sensitization was conducted by applying picryl chloride 7% by weight ethanol solution 100 μl to the abdomen, and the hapten challenge was conducted by applying picryl chloride 1% by weight olive oil solution 10 μl to both faces of each auricle portion. The anti-inflammation effect was measured by seeking the edema ratio and tumidity from the aforementioned test results. […]

[3] = after the completion of administration of the test foodstuff

Final Weight, Mean [1, 3]: 25.9 g
Ingestion, Mean ([1]; daily foodstuff ingestion amount, anti-atopic dermatitis test): 4.05 g/day
Final Weight, Mean [2, 3]: 24.2 g
Ingestion, Mean ([2]; daily foodstuff ingestion amount, delayed-type hypersensitivity test): 4.2 g/day
Compound: OC[C@H]1O[C@H](OC[C@H]2O[C@H](O[C@]3(CO)O[C@H](CO)[C@@H](O)[C@@H]3O)[C@H](O)[C@@H](O)[C@@H]2O)[C@H](O)[C@@H](O)[C@H]1O [Raffinose]

Reference: patent US20020155126A1, “Pharmacological composition containing yeast cell wall fraction” (priority 2001, published 2002)
